Activity calls are given as the source filed them.
Columns and labels:
[1] = growth suppression of PTEN-null colon cells, dose response, cell-based, HCT116 PTEN knockout (AID 1047); type: functional;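 also: HCT116 colon tumor cells with PTEN knocked out; cells exposed to compound for 60 hours before readout; potency for loss of cell viability measured by luminescence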
[2] = tested on: H9c2; test: cells; type: functional, cell-based; settings: Rattus norvegicus, H9c2, Myocardium;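 also: confirmatory concentration-response retest of ultra-high-throughput screening hits for modulation of myocardial damage; cell death induced by hydrogen peroxide oxidative stress; compound pretreatment for 60 min then peroxide exposure for 2 h; potency is for protecting the cells against peroxide damage rather than for killing them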
[3] = growth suppression of beta-catenin-knockout colon cells, dose response, cell-based, HCT116, human colon tumor (AID 1045); type: functional;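 also: HCT116 colon tumor cells with beta catenin knocked out; cells exposed to compound for 60 hours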
[4] = Luminescence Cell-Based Dose Retest to Confirm Inhibitors of Cancer Stem Cells. [Related pubchem assays (depositor defined):AID2717, AID2721]; type: functional; settings: Homo sapiens
[5] = target: T1, Rac GTPase-activating protein 1 (Homo sapiens, UniProt Q9H0H5); test: MgcRacGAP GTPase-activating activity inhibitors, confirmation, biochemical, ADP Hunter fluorescence, primary and confirmatory (AID 624330); type: functional
T1 sequence (Q9H0H5 whole entry): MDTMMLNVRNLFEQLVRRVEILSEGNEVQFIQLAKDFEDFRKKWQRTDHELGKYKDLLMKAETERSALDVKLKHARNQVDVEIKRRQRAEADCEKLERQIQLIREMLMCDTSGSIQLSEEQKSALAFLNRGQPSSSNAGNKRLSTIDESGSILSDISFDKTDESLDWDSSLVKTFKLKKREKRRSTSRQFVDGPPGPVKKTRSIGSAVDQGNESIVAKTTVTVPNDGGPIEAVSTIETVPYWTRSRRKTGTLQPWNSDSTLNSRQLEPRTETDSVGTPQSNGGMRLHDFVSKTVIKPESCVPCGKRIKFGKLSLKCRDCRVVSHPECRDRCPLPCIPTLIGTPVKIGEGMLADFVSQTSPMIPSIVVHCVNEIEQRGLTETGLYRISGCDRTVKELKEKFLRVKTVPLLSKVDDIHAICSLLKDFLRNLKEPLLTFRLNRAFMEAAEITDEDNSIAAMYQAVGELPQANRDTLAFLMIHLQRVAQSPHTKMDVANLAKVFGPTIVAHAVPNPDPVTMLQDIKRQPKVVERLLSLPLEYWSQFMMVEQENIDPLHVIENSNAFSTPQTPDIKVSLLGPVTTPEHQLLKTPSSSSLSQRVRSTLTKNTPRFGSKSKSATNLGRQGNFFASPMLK

[6] = target: Large T antigen (Simian virus 40, UniProt P03070); type: functional, Betapolyomavirus macacae;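 also: Confirmatory-stage PubChem screen for compounds that inhibit SV40 T antigen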
[7] = cells; type: functional
[8] = target: Luciferin 4-monooxygenase (Photinus pyralis, UniProt P08659); test: firefly luciferase enzyme inhibitors, dose response, biochemical, luminescence (AID 1891)
[9] = Luminescence Cell-Based Dose Confirmation HTS to Identify Inhibitors of Platelet Dense Granule Release. [Related pubchem assays: 1663 (Primary HTS), 1678 (Summary of Project)]; type: functional
[10] = target: T2, Polyadenylate-binding protein 1 (Homo sapiens, UniProt P11940); test: PABP1 MLLE–PAM2 binding inhibitor potency, dose response, biochemical, fluorescence polarization, FITC-PAM2 peptide (AID 602259); type: functional; settings: read-out: IC50_Mean
[11] = target: T3, Zinc finger protein mex-5 (Caenorhabditis elegans, UniProt Q9XUB2); test: MEX-5/TCR-2 RNA interaction inhibitors, dose response, biochemical, C. elegans, fluorescence polarization (AID 1960)
T3 sequence (Q9XUB2 whole entry): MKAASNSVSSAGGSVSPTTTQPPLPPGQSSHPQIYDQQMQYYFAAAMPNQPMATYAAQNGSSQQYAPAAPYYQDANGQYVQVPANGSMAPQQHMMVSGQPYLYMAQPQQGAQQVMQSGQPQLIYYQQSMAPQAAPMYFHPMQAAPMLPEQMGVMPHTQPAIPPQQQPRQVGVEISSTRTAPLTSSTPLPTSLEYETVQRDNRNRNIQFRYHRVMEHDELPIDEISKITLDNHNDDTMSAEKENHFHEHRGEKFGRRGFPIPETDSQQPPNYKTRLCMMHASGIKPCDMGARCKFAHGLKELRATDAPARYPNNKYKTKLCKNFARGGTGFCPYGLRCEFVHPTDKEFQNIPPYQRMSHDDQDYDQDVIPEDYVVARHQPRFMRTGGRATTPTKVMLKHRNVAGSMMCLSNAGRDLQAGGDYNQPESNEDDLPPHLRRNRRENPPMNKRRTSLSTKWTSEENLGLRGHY

[12] = target: T2, Polyadenylate-binding protein 1; test: PABP1 MLLE–PAM2 interaction inhibitors, dose response, miRNA deadenylation inhibitor project, biochemical, fluorescence polarization, Cy5-PAM2 peptide, secondary (AID 602260); type: functional; settings: read-out: IC50_Mean
[13] = target: T4, RNA-binding protein pos-1 (Caenorhabditis elegans, UniProt G5EF15); test: inhibitors of POS-1/mex-3 RNA binding, dose response, biochemical, fluorescence polarization (AID 1964);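 also: purified POS-1 fused to maltose binding protein made in E. coli; potency of compounds blocking POS-1 binding to fluorescent RNA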
T4 sequence (G5EF15 whole entry): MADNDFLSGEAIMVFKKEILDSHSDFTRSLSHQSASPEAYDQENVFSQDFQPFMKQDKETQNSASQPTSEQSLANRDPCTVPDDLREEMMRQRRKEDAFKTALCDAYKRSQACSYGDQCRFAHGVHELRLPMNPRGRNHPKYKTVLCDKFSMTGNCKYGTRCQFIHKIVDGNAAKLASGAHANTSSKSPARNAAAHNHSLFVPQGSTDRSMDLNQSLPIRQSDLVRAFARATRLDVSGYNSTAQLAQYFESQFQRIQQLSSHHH

[14] = tested on: Streptococcus sp. 'group A'; test: growth inhibition of control SK(-) GAS strain, dose response, counter-screen for streptokinase expression inhibitor project, luminescence, kanamycin, BacTiterGlo, confirmation (AID 1900); type: functional, organism-based
[15] = tested on: Streptococcus; test: Group A Streptococcus viability loss, dose response, counter-screen for streptokinase expression inhibitor project, luminescence, BacTiterGlo (AID 1915); type: functional, organism-based;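 also: potency for reduction of bacterial viability or growth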
[16] = target: T5, Streptokinase A (Streptococcus pyogenes serotype M1, UniProt P10520); test: S. pyogenes streptokinase expression inhibitors, potency, dose response, plasminogen activation absorbance, OD405 (AID 1914); type: functional, Streptococcus pyogenes M1 GAS;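 also: secreted streptokinase activity via plasminogen activation per viability signal from cell pellet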
T5 sequence (P10520 whole entry): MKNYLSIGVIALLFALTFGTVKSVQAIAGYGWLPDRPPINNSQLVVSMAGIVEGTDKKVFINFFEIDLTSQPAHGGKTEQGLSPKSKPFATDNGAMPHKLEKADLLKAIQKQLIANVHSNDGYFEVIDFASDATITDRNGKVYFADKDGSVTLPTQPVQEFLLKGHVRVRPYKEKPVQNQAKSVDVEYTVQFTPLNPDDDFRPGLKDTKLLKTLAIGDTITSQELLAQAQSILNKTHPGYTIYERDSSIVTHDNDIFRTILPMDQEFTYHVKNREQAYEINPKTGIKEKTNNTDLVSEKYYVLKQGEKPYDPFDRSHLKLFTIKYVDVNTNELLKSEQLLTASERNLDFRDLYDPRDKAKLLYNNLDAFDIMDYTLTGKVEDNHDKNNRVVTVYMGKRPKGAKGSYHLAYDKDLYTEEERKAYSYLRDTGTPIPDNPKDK

[17] = NIH-3T3 fibroblast cytotoxicity, dose response, cytotoxicity control, cell-based, fluorescence, Alamar Blue, secondary assay (AID 2327); type: functional;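 also: NIH-3T3 mouse fibroblasts cultured with fluconazole at 8 µg/mL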
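For AC50 in this document: cells exposed to compound for roughly 70 hours or longer before luminescence read.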

Sequence of Luciferin 4-monooxygenase (P08659 whole entry): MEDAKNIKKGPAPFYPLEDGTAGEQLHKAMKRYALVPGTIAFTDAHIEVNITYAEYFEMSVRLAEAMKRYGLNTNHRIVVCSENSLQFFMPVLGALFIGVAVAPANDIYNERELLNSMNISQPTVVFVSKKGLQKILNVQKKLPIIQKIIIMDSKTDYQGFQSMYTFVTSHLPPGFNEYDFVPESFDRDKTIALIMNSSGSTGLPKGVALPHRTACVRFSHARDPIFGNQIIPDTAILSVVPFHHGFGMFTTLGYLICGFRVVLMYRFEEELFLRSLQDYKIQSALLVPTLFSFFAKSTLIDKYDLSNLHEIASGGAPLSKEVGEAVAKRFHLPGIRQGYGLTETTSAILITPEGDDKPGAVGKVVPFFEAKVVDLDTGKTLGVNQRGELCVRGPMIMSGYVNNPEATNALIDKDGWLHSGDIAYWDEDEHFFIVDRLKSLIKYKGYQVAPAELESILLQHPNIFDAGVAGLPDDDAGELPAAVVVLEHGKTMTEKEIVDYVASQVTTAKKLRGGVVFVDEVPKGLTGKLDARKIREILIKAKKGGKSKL
Sequence of Large T antigen (P03070 whole entry): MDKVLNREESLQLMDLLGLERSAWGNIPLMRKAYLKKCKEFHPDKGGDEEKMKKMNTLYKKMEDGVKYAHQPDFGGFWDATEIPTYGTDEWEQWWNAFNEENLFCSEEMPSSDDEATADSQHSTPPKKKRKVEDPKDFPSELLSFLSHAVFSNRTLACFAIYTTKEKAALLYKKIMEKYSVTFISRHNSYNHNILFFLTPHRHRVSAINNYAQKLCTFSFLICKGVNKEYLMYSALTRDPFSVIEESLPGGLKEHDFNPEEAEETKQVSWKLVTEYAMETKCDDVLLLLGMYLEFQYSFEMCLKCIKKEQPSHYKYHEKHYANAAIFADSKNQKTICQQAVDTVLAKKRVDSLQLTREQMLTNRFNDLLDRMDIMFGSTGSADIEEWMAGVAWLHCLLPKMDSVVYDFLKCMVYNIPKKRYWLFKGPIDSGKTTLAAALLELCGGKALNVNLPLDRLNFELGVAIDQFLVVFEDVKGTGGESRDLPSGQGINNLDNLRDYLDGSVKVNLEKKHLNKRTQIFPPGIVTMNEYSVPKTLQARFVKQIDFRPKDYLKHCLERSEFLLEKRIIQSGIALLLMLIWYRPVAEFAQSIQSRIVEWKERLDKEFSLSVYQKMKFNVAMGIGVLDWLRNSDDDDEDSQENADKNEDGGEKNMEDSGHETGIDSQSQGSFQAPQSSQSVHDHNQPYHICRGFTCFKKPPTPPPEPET
T2 sequence (P11940 whole entry): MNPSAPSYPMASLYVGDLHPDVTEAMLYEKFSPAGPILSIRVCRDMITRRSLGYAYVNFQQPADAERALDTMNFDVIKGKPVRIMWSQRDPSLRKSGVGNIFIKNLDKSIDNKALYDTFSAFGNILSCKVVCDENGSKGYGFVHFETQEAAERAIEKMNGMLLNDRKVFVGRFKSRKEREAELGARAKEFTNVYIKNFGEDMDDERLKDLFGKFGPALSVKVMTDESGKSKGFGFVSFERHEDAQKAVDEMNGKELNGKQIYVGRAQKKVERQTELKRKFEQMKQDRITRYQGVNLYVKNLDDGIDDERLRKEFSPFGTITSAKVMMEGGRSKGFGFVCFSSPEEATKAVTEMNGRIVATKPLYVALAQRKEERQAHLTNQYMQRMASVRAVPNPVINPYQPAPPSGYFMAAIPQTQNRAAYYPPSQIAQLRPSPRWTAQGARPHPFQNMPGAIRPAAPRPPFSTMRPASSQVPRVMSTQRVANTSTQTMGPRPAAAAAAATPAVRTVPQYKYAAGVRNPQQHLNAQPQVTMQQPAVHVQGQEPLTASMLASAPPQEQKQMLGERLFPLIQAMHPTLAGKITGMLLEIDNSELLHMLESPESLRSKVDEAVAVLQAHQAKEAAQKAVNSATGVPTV

Cc1ccc(C)c(NC(=O)C(Sc2ncnc3ccccc23)c2ccccc2)c1 (configuration not stated)
EC50 [1]: 111 µM (active) | IC50 [2]: 29.1 µM (active) | EC50 [3]: 126 µM (active)

O=C(Cc1ccccc1)Nc1cccc(NC(=O)c2ccccc2)c1
AC50 [4]: 7.49 µM (active)

Cc1ccc(NC(=O)c2cc(-c3cccs3)nc3ccccc23)nc1
IC50 [2]: > 79 µM (inactive)

CC(C)(C)NC(=O)COC(=O)c1c2c(nc3ccccc13)CCC2
IC50 [2]: 6.79 µM (active)

COC(=O)CC1SC(=O)NC1=Nc1ccc(O)cc1 (configuration not stated)
IC50 [5]: 52.9 µM (active) | IC50 [6]: 16.8 µM (active)

COc1cccc(OCC(=O)NNC(=O)C(=O)Nc2cccc(C)c2)c1
IC50 [7]: 20.4 µM (active)

CCCNC(=O)NC(=O)COc1ccc(-c2ccc(C#N)cc2)cc1
IC50 [7]: 1.12 µM (active)

CCC(C)SCc1nc2ccccc2[nH]1 (configuration not stated)
EC50 [8]: > 112 µM (not active) | EC50 [9]: > 112 µM (not active)

O=C(Nc1ccccc1F)c1cnc(O)nc1O
EC50 [8]: > 112 µM (not active) | EC50 [9]: > 112 µM (not active)

O=C(c1ccco1)N1CCN(C(=S)Nc2ccc(F)c(Cl)c2)CC1
IC50 [6]: > 100 µM (active)

COc1cc(/C=N/NC(=O)c2cccc([N+](=O)[O-])c2)ccc1O
IC50 [5]: 29 µM (active) | IC50 [6]: 5.73 µM (active)

N#CC1=C(N)C2=C(N3CCCCC3)CCCC2C1(C#N)C#N (configuration not stated)
IC50 [10]: > 66 µM (inactive) | EC50 [11]: 77.1 µM (active) | IC50 [6]: 9.99 µM (active) | IC50 [12]: > 66 µM (inactive) | EC50 [13]: 89.4 µM (active)

CCc1cccc(NC(=O)CN(C)S(=O)(=O)c2c[nH]cn2)c1
EC50 [8]: > 112 µM (not active) | EC50 [9]: > 112 µM (not active)

Cc1cc(OCC(=O)Nc2ccncc2)ccc1Br
IC50 [7]: > 50 µM (active)

COc1ccc(CCN2CC(C(=O)NCCc3ccccc3C(F)(F)F)CCC2=O)cc1 (configuration not stated)
EC50 [8]: > 112 µM (not active) | EC50 [9]: > 112 µM (not active)

Cc1ccc(NC(=O)CO/N=C/c2ccccc2C)c(C)c1
IC50 [7]: 50 µM (active)

CCn1c(SCC(=O)N2CCN(c3ccccc3)CC2)nc2c(c1=O)SC(C)C2 (configuration not stated)
IC50 [2]: 11.9 µM (active)

Cc1cc(C)c2c(c1)cc(C)c1nnc(SCC(=O)Nc3ccccc3N3CCOCC3)n12
EC50 [8]: > 112 µM (not active) | EC50 [9]: > 112 µM (not active)

O=c1c2ccccc2nc(/C=C/c2ccc(Br)cc2)n1CCO
AC50 [4]: 10.5 µM (active)

O=C(c1ccc(S(=O)(=O)N2CCOCC2)cc1)N1CCN(c2ccc(F)cc2)CC1
EC50 [8]: > 112 µM (not active) | EC50 [9]: 93.8 µM (active)

COc1ccc(NC(=O)c2ccc(-c3ccc([N+](=O)[O-])cc3)o2)cc1OC
IC50 [7]: > 50 µM (active)

CC(=O)Nc1ccc(-c2csc(NC(=O)Cc3cccc(F)c3)n2)cc1
AC50 [4]: 1.29 µM (active)

Cc1ccc(OCCCCc2c(C)n[nH]c2C)cc1
IC50 [7]: 25.6 µM (active) | EC50 [14]: 16.3 µM (active) | EC50 [15]: > 150 µM (not active) | EC50 [16]: > 150 µM (not active)

O=C(NCCc1c[nH]c2ccccc12)C(=O)c1c[nH]c2ccccc12
AC50 [4]: 1.48 µM (active)

Nc1ccc(Nc2nc3ccccc3[nH]2)cc1
IC50 [6]: 7.8 µM (active)

COc1ccc(N/C=C/C(=O)c2ccccc2)cc1
EC50 [8]: 0.863 µM (active) | EC50 [9]: < 0.701 µM (active)

COc1ccc(CNC(=O)c2ccccc2NC(=O)C2=CSCCO2)c(OC)c1
EC50 [8]: > 112 µM (not active) | EC50 [9]: 15.7 µM (active)

CN(C)c1ccc(N2CC(C)(C)C2=O)cc1
IC50 [6]: 4.39 µM (active)

Cc1ccccc1C(C(=O)NCc1ccccc1)N(Cc1ccco1)C(=O)c1ccccn1 (configuration not stated)
IC50 [2]: > 79 µM (inactive)

O=C1NC(=S)N=C1c1c(O)[nH]c2ccccc12
EC50 [8]: > 112 µM (not active) | EC50 [9]: > 112 µM (not active)

COc1cc(/C(C)=N/NC(=O)CSc2nc3ccccc3[nH]2)ccc1O
IC50 [6]: 22.9 µM (active)

CC(=O)c1ccc(N2CCN(C(=O)c3cc(-c4cccnc4)nc4ccc(Br)cc34)CC2)cc1
IC50 [2]: > 79 µM (inactive)

CN1C2CCC1CC(NC(=O)CSc1ccc(Cl)cc1)C2 (configuration not stated)
EC50 [8]: > 112 µM (not active) | EC50 [9]: > 112 µM (not active)

Cc1ccc(-c2nnc(O)c3ccccc23)cc1S(=O)(=O)NC(C)(C)C
IC50 [2]: > 79 µM (inactive)

C/C(CC(=O)Nc1ccc(N(C)C)cc1)=N\NC(=O)c1ccc(Cl)cc1Cl
IC50 [6]: 9.26 µM (active)

Cc1ccc2c(c1)c1ncn(CCC3=CCCCC3)c(=O)c1n2C
AC50 [4]: 1 µM (active)

O=C(COc1ccccc1Cl)NNC(=O)Cn1[nH]c(=O)c2ccccc2c1=O
IC50 [2]: > 79 µM (inactive)

CC(CCc1ccccc1)NC(=O)CN1CCN(c2ccc(O)cc2)CC1 (configuration not stated)
EC50 [17]: 36.2 µM (active)

COC(=O)c1ccc(/C=C/c2c(-c3ccc(OC)cc3)sc3ccccc23)cc1
AC50 [4]: 3.79 µM (active)

COc1ccc(Cl)cc1NC(=O)CN(C)C(=O)CCc1nc(O)c2ccccc2n1
IC50 [2]: > 79 µM (inactive)

O=C(CCn1c(=O)oc2cc(Cl)ccc21)Nc1ccc(O)cc1
IC50 [6]: 25.2 µM (active)

— ChEMBL document CHEMBL1201862, “PubChem BioAssay data set” (2004)
